Measurements: paper PMC6117411, “De novo Transcriptome Characterization of Rhodomyrtus tomentosa Leaves and Identification of Genes Involved in α/β-Pinene and β-Caryophyllene Biosynthesis” (Frontiers in Plant Science, 2018)

Experiments:
Assay type in all cases: biochemical
Conditions in all cases: 25 mM HEPES pH 7.0, 10 mM MgCl2, 5 mM DTT, 10 mM substrate, 30 C, 30 min
[1] = target: T1, RtTPS1 (Rhodomyrtus tomentosa, UniProt A0A385J6X8); assay: product formation by GC-MS
T1 construct: gene TPS1; 38 residues upstream of RRX8W motif; TPS-b subfamily
T1 sequence (A0A385J6X8 1-581): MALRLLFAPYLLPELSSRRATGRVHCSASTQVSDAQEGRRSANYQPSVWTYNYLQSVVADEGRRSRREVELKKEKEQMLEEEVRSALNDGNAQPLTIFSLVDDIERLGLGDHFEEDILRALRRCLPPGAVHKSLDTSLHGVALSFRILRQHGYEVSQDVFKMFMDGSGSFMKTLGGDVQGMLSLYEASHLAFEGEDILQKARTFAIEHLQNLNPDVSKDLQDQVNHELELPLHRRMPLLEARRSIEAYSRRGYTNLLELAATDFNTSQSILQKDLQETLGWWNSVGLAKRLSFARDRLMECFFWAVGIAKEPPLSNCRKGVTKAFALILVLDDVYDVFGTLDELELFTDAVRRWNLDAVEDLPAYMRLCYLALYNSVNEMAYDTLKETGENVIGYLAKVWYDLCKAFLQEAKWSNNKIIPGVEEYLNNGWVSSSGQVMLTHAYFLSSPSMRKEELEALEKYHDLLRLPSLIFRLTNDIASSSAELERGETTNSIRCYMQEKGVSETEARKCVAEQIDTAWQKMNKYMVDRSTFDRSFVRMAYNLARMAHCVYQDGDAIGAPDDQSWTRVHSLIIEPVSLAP

[2] = target: T2, RtTPS3 (Rhodomyrtus tomentosa, UniProt A0A385J6Y9); assay: product formation by GC-MS
T2 construct: gene TPS3; 52 residues upstream of RRX8W motif; TPS-a subfamily
T2 sequence (A0A385J6Y9 1-597): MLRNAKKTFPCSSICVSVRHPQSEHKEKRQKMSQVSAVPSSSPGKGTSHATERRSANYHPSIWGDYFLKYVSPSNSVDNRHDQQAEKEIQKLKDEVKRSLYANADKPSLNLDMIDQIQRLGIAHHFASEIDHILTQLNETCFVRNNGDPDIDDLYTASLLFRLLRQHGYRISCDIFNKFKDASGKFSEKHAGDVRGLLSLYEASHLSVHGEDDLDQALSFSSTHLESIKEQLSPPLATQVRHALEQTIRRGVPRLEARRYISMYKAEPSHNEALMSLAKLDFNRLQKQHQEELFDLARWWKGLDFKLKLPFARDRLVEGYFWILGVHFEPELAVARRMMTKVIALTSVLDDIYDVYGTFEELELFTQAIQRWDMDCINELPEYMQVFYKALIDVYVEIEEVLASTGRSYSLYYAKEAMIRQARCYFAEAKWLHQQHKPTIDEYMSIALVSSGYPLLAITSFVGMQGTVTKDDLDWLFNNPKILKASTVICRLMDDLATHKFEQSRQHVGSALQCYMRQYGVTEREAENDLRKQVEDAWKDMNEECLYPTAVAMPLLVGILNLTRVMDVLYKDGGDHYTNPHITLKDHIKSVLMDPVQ

[3] = target: T3, RtTPS4 (Rhodomyrtus tomentosa, UniProt A0A385J6Y5); assay: product formation by GC-MS and chiral GC-FID
T3 construct: gene TPS4; 48 residues upstream of RRX8W motif; TPS-a subfamily
T3 sequence (A0A385J6Y5 1-594): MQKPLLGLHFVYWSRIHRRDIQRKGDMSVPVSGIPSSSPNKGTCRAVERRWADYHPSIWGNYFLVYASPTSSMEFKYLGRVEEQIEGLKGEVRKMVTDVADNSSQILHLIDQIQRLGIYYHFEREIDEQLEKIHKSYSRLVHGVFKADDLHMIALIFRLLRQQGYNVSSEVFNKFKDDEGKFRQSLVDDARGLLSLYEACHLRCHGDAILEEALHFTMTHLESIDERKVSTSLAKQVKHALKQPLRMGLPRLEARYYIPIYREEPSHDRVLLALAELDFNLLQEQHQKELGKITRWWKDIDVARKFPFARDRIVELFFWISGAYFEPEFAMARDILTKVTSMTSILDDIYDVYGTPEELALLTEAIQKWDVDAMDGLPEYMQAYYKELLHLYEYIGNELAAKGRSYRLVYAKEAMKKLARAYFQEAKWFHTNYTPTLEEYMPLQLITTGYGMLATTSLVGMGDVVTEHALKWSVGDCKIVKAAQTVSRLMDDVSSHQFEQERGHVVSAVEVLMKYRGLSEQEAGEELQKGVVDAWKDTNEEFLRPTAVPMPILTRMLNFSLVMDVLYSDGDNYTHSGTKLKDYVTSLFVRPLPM

[4] = target: T4, RtTPS2 (Rhodomyrtus tomentosa, UniProt A0A385J6Y6); assay: product formation by GC-MS and chiral GC-FID
T4 construct: gene TPS2; TPS-b subfamily
T4 sequence (A0A385J6Y6 1-599): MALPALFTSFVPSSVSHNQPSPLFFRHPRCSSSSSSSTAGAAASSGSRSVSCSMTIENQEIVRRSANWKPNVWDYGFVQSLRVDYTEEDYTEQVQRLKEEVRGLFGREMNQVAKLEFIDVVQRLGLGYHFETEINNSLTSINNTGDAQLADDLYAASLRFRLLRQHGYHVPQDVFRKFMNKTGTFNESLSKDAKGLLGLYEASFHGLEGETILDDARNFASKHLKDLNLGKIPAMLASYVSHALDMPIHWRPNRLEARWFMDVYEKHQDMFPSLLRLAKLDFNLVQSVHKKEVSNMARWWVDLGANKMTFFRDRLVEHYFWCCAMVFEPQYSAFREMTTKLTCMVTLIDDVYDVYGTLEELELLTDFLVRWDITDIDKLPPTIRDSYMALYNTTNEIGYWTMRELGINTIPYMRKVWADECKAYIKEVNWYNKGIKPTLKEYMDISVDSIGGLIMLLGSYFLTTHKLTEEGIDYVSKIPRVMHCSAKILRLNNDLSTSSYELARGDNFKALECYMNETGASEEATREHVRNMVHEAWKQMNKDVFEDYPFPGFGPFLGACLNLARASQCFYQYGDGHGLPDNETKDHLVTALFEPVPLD

[5] = target: T2, RtTPS3; assay: product formation by GC-MS and chiral GC-FID
[6] = target: T1, RtTPS1; assay: product formation by GC-MS and chiral GC-FID

SMILES | product formation by GC-MS [1] | product formation by GC-MS [2] | product formation by GC-MS and chiral GC-FID [3] | product formation by GC-MS and chiral GC-FID [4] | product formation by GC-MS and chiral GC-FID [5] | product formation by GC-MS and chiral GC-FID [6]
CC(C)=CCC/C(C)=C/CC/C(C)=C/COP(=O)(O)OP(=O)(O)O [FPP] | RtTPS1 and RtTPS3 are also active with FPP, producing β-caryophyllene | RtTPS1 and RtTPS3 are also active with FPP, producing β-caryophyllene | – | – | – | –
CC(C)=CCC/C(C)=C/COP(=O)(O)OP(=O)(O)O [GPP] | – | – | RtTPS1-4 produce mainly (+)-α-pinene and (+)-β-pinene | RtTPS1-4 produce mainly (+)-α-pinene and (+)-β-pinene | RtTPS1-4 produce mainly (+)-α-pinene and (+)-β-pinene | RtTPS1-4 produce mainly (+)-α-pinene and (+)-β-pinene
